Measured values from ChEMBL document CHEMBL4002617, “Antifungal activity of substituted aurones” (Bioorg Med Chem Lett, 2017).
The source made the active and inactive calls. The calls are words filed in the database; no cut-off is given here.

What was measured:
Assay type in all cases: functional
Candida albicans [1] = assay: Antifungal activity against Candida albicans ATCC 90028 at 100 uM after 24 hrs by PrestoBlue dye based microdilution broth assay relative to control; conditions: ATCC 90028, 24 h
Candida albicans [2] = assay: Antibiofilm activity against Candida albicans ATCC 90028 intermediate phase biofilm at 2 ug/ml after 24 hrs by calcofluor white dye based fluorescent microscopic analysis
Candida albicans [3] = assay: Antifungal activity against Candida albicans ATCC 90028 after 24 hrs by PrestoBlue dye based microdilution broth assay; conditions: ATCC 90028, 24 h
Nakaseomyces glabratus = assay: Antifungal activity against Candida glabrata ATCC 66032 after 24 hrs by PrestoBlue dye based microdilution broth assay; conditions: ATCC 66032, 24 h
Candida tropicalis = assay: Antifungal activity against Candida tropicalis ATCC 750 after 24 hrs by PrestoBlue dye based microdilution broth assay; conditions: ATCC 750, 24 h
Candida albicans [4] = assay: Antibiofilm activity against Candida albicans ATCC 90028 intermediate phase biofilm at antifungal IC50 to IC99 after 24 hrs by calcofluor white dye based fluorescent microscopic analysis
Candida albicans [5] = assay: Antibiofilm activity against Candida albicans ATCC 90028 intermediate phase biofilm at 16 ug/ml after 24 hrs by calcofluor white dye based fluorescent microscopic analysis
Candida albicans [6] = assay: Antibiofilm activity against Candida albicans ATCC 90028 intermediate phase biofilm at 100 ug/ml after 24 hrs by calcofluor white dye based fluorescent microscopic analysis

Row | SMILES | inhibition at 100 µM (Candida albicans [1]) | also measured
1 | O=C1/C(=C/c2ccccc2O)Oc2ccccc21 | 1% | –
2 | COc1ccc(/C=C2\Oc3ccccc3C2=O)cc1O | 45.6% | –
3 | O=C1/C(=C/c2ccc[nH]2)Oc2ccccc21 | 78.8% | –
4 | C[C@@H]1[C@H](O)[C@@H](C)/C=C/C=C/C=C/C=C/C=C/C=C/C=C/[C@H](O[C@@H]2O[C@H](C)[C@@H](O)[C@H](N)[C@@H]2O)C[C@@H]2O[C@](O)(C[C@@H](O)C[C@@H](O)[C@H](O)CC[C@@H](O)C[C@@H](O)CC(=O)O[C@H]1C)C[C@H](O)[C@H]2C(=O)O | – | Activity (Candida albicans [2]): Active
5 | COc1ccc(/C=C2\Oc3cc(O)ccc3C2=O)cc1O | 40% | –
6 | COc1cccc(/C=C2\Oc3ccccc3C2=O)c1O | 16.7% | –
7 | O=C1/C(=C/c2ccccn2)Oc2ccccc21 | – | IC50 (Candida albicans [3]): 18 µM; IC50 (Nakaseomyces glabratus): 10 µM; IC50 (Candida tropicalis): 12 µM; Activity (Candida albicans [4]): inactive
8 | COc1cc(Br)c(/C=C2\Oc3ccccc3C2=O)cc1OC | 12.5% | –
9 | COc1ccc(/C=C2\Oc3ccccc3C2=O)cc1OC [3',4'-DIMETHOXY-AURONE] | 14.2% | –
10 | COc1cc(/C=C2\Oc3ccccc3C2=O)ccc1O | 11.2% | –
11 | O=C1/C(=C/c2cccs2)Oc2c1ccc(O)c2O | 26% | –
12 | COc1ccc(/C=C2\Oc3c(ccc(O)c3O)C2=O)cc1O | 99.4% | IC50 (Candida albicans [3]): 16 µM; IC99 (Candida albicans [3]): 100 µM; IC50 (Nakaseomyces glabratus): 11 µM; IC50 (Candida tropicalis): 10 µM; Activity (Candida albicans [5]): inactive; Activity (Candida albicans [6]): Active
13 | O=C1/C(=C/c2ccc[nH]2)Oc2c1ccc(O)c2O | 27.5% | –
14 | O=C1/C(=C/c2ncc[nH]2)Oc2ccccc21 | 43.9% | –
